Source: patent US11026943B2, “Aminoquinoline derivatives and uses thereof” (UNIVERSITY OF DELHI, priority 2012, dated 2021)

test: Solubility (solvent listed in compound tables); assay type: physicochemical; conditions: solvent named, Table 3

SOLUBILITY | Compound
DMSO | Clc1ccc2c(NCCCNc3ccnc(Cl)n3)ccnc2c1 [SM 719A]
DMSO | Clc1ccc2c(N3CCN(c4nccc(Nc5ccccc5)n4)CC3)ccnc2c1 [ATH 232]
DMSO | Clc1ccc2c(NCCNc3cc(Cl)nc(Cl)n3)ccnc2c1 [SM 695A]
DMSO | COc1ccc(Nc2nc(NCCNc3ccnc4cc(Cl)ccc34)nc(N3CCOCC3)n2)cc1 [SM 332]
DMSO | CCN1CCN(c2cc(Cl)nc(NCCCNc3ccnc4cc(Cl)ccc34)n2)CC1 [SM 718]
DMSO | Clc1ccc2c(NCCNc3ccnc(N4CCOCC4)n3)ccnc2c1 [SM 731]
DMSO | Clc1ccc2c(NCCNc3nc(Cl)cc(N4CCOCC4)n3)ccnc2c1 [SM 700]
DMSO | Clc1ccc2c(NCCNc3nccc(Cl)n3)ccnc2c1 [SM 728B]
DMSO | Clc1ccc2c(N3CCN(c4ccnc(NC5CCCCC5)n4)CC3)ccnc2c1 [ATH 236]
DMSO | Clc1ccc(Nc2ccnc(N3CCN(c4ccnc5cc(Cl)ccc45)CC3)n2)cc1 [ATH 227]
DMSO | Clc1ccc2c(NCCNc3nc(Cl)cc(Cl)n3)ccnc2c1 [SM 695B]
DMSO | COc1ccc(Nc2nc(NCCNc3c4ccc(Cl)cc4nc4ccc(OC)cc34)nc(N3CCOCC3)n2)cc1 [ATH 182]
DMSO | Cc1ccccc1Nc1nc(Nc2ccccc2C)nc(NC(C)CNc2ccnc3cc(Cl)ccc23)n1 (centres unmarked) [SM 146]
DMSO | OCCCNc1nc(NCCCNc2ccnc3cc(Cl)ccc23)nc(N2CCOCC2)n1 [SM 351]
DMSO | CN1CCN(c2nc(Cl)cc(NCCNc3ccnc4cc(Cl)ccc34)n2)CC1 [SM 701]
DMSO | Fc1ccc(Nc2nc(NCCCNc3ccnc4cc(Cl)ccc34)nc(N3CCOCC3)n2)cc1 [SM 339]
DMSO | Cc1cc(NCCNc2ccnc3cc(Cl)ccc23)nc(N2CCOCC2)n1 [SM 489]
DMSO | COc1ccc(Nc2cc(C)nc(N3CCN(c4ccnc5cc(Cl)ccc45)CC3)n2)cc1 [ATH 245]
DMSO | CCN(CC)c1nc(Cl)nc(NCCNc2ccnc3cc(Cl)ccc23)n1 [SM 137]
DMSO | Clc1ccc2c(N3CCN(c4nccc(Nc5ccc(Br)cc5)n4)CC3)ccnc2c1 [ATH 226]
DMSO | Clc1ccc2c(NCCNc3cc(Cl)nc(N4CCOCC4)n3)ccnc2c1 [SM 696]

SOLUBILITY | Compound
DMSO | OCCCNc1nc(NCCNc2ccnc3cc(Cl)ccc23)nc(N2CCOCC2)n1 [SM 350]
DMSO | CC(CNc1ccnc2cc(Cl)ccc12)Nc1nc(N2CCOCC2)nc(N2CCOCC2)n1 (centres unmarked) [SM 143]
DMSO | Cc1cc(N2CCN(c3ccnc4cc(Cl)ccc34)CC2)nc(N2CCCCC2)n1 [ATH 240]
DMSO | COc1ccc(Nc2nc(NCCCNc3c4ccc(Cl)cc4nc4ccc(OC)cc34)nc(N(C)C)n2)cc1 [ATH 166]
DMSO | Cc1cc(N2CCN(c3ccnc4cc(Cl)ccc34)CC2)nc(N2CCOCC2)n1 [ATH 239]
DMSO | CCN1CCN(c2nccc(NCCCNc3ccnc4cc(Cl)ccc34)n2)CC1 [SM 723]
DMSO | Clc1ccc2c(NCCNc3nccc(N4CCOCC4)n3)ccnc2c1 [SM 733]
DMSO | CN1CCN(c2ccnc(NCCCNc3ccnc4cc(Cl)ccc34)n2)CC1 [SM 726]
DMSO | Clc1ccc2c(NCCNc3nc(Cl)nc(NCCNc4ccnc5cc(Cl)ccc45)n3)ccnc2c1 [SM 133]
DMSO | COc1ccc(Nc2nc(NCCNCc3c4ccc(Cl)cc4nc4ccc(OC)cc34)nc(N(C)C)n2)cc1 [ATH 196]
DMSO | OCCCCNc1nc(NCCNc2ccnc3cc(Cl)ccc23)nc(N2CCOCC2)n1 [SM 360]
DMSO | COc1ccc(Nc2nc(NCCNCc3c4ccc(Cl)cc4nc4ccc(OC)cc34)nc(N3CCOCC3)n2)cc1 [ATH 184]
DMSO | OCCNc1nc(NCCNc2ccnc3cc(Cl)ccc23)nc(N2CCCCC2)n1 [SM 365]
DMSO | CN1CCN(c2nccc(NCCCNc3ccnc4cc(Cl)ccc34)n2)CC1 [SM 722]
DMSO | COc1ccc(Nc2nc(NCCNc3c4ccc(Cl)cc4nc4ccc(OC)cc34)nc(NC3CCCCC3)n2)cc1 [ATH 200]
DMSO | COc1cc(Nc2nc(NC(C)CNc3ccnc4cc(Cl)ccc34)nc(N3CCOCC3)n2)cc(OC)c1 (centres unmarked) [SM 130]
DMSO | COc1ccc2nc3cc(Cl)ccc3c(NCCNc3nc(N4CCN(c5ccccc5)CC4)nc(N4CCN(c5ccccc5)CC4)n3)c2c1 [ATH 178]
DMSO | OCCNc1nc(NCCCCNc2ccnc3cc(Cl)ccc23)nc(N2CCOCC2)n1 [SM 345]
DMSO | COc1cc(Nc2nc(NCCNc3c4ccc(Cl)cc4nc4ccc(OC)cc34)nc(NC3CCCCC3)n2)cc(OC)c1 [ATH 192]
DMSO | Cc1cc(Nc2ccc(F)cc2)nc(N2CCN(c3ccnc4cc(Cl)ccc34)CC2)n1 [ATH 247]
DMSO | COc1ccc(Nc2nc(NCCCCNc3ccnc4cc(Cl)ccc34)nc(N3CCOCC3)n2)cc1 [SM 356]

same assay, conditions: solvent named, Table 4

SOLUBILITY | Compound
DMSO | Cc1ccc(Nc2cc(C)nc(NCCCNc3ccnc4cc(Cl)ccc34)n2)cc1 [DKG858]
DMSO | Clc1ccc(Nc2ccnc(NCCCCNc3ccnc4cc(Cl)ccc34)n2)cc1 [DKG815]
DMSO | Cc1cc(Nc2ccccc2)nc(NCCNc2ccnc3cc(Cl)ccc23)n1 [DKG833]
DMSO | Clc1ccc(Nc2ccnc(NCCCNc3ccnc4cc(Cl)ccc34)n2)cc1 [DKG814]
DMSO | COc1cc(Nc2ccnc(NCCCNc3ccnc4cc(Cl)ccc34)n2)cc(OC)c1 [DKG830]
DMSO | Clc1ccc2c(NCCCNc3nccc(Nc4ccccc4)n3)ccnc2c1 [DKG822]
DMSO | Clc1ccc(Nc2ccnc(NCCNc3ccnc4cc(Cl)ccc34)n2)cc1 [DKG813]
DMSO | COc1ccc(Nc2cc(C)nc(NCCCNc3ccnc4cc(Cl)ccc34)n2)cc1 [DKG838]
DMSO | COc1ccc(Nc2cc(C)nc(NCCCCNc3ccnc4cc(Cl)ccc34)n2)cc1 [DKG839]
DMSO | Clc1ccc2c(NCCCCNc3nccc(Nc4ccc(Br)cc4)n3)ccnc2c1 [DKG811]

same assay, conditions: solvents listed for the compound

SOLUBILITY | Compound
MeOH, DMSO | Cc1cc(NCCCCNc2ccnc3cc(Cl)ccc23)nc(NCCCO)n1 [MT1-193]
MeOH, DMSO | Cc1cc(NCCCNc2ccnc3cc(Cl)ccc23)nc(NCCCCO)n1 [MT1-147]
MeOH, DMSO | OCCCNc1nccc(NCCCNc2ccnc3cc(Cl)ccc23)n1 [MT1-121]
MeOH, DMSO | Cc1cc(NCCCNc2ccnc3cc(Cl)ccc23)nc(NCCO)n1 [MT1-145]
MeOH, DMSO | OCCCCCNc1nccc(NCCCNc2ccnc3cc(Cl)ccc23)n1 [MT1-128]
MeOH, DMSO | Cc1cc(NCCNc2ccnc3cc(Cl)ccc23)nc(NCCCCCCO)n1 [MT1-191]
MeOH, DMSO | Cc1cc(NCCCNc2ccnc3cc(Cl)ccc23)nc(NCCCCCO)n1 [MT1-148]
MeOH, DMSO | OCCCCCCNc1nccc(NCCCNc2ccnc3cc(Cl)ccc23)n1 [MT1-132]
MeOH, DMSO | Cc1cc(NCCCCNc2ccnc3cc(Cl)ccc23)nc(NCCCCCO)n1 [MT1-195]
MeOH, DMSO | OCCCCNc1nccc(NCCCCNc2ccnc3cc(Cl)ccc23)n1 [MT1-158]
